From ChEMBL document CHEMBL4417633, “Inhibitory polypeptides specific to WNT inhibitors” (2017)
Where a SMILES comes first, the peptide text is derived from it.

Tests used:
[1] = molecular target: T1, Dickkopf-related protein 1 (Homo sapiens, UniProt O94907); assay: Inhibition of biotin-labeled human recombinant DKK1 assessed as reduction in DKK1 interaction with LRP-6/Fc incubated overnight by chemiluminescence based Alpha-screen assay
T1 sequence (O94907 whole entry): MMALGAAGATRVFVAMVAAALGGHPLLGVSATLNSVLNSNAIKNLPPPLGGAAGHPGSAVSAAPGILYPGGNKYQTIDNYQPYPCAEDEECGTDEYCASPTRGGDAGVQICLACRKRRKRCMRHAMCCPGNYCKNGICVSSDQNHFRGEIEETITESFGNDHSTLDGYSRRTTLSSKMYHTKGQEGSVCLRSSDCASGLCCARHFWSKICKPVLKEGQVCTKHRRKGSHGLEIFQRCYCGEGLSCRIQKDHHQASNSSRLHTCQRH

[2] = molecular target: T2, Dickkopf WNT-signaling pathway inhibitor 1 (Rattus norvegicus, UniProt A6I0Z0); assay: Inhibition of biotin-labeled rat recombinant DKK1 assessed as reduction in DKK1 interaction with LRP-6/Fc incubated overnight by chemiluminescence based Alpha-screen assay
T2 sequence (A6I0Z0 whole entry): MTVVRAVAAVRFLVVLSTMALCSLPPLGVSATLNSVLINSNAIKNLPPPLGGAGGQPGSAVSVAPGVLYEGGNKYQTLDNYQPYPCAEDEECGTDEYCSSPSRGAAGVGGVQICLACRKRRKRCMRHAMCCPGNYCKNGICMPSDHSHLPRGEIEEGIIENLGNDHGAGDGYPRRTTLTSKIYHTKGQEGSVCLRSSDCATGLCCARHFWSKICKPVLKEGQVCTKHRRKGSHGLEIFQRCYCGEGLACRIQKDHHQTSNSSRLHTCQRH

SMILES | IC50 [1] | IC50 [2]
CC[C@H](C)[C@H](NC(=O)[C@H](CC(C)C)NC(=O)[C@@H]1CCCN1C(=O)[C@H](Cc1ccccc1)NC(=O)[C@H](CS)NC(=O)[C@H](CCSC)NC(=O)[C@H](CCCCN)NC(=O)[C@H](CC(=O)O)NC(=O)[C@H](C)NC(=O)[C@H](CS)NC(=O)[C@H](CCSC)NC(=O)[C@H](Cc1ccccc1)NC(=O)[C@H](CCC(=O)O)NC(=O)[C@H](CC(N)=O)NC(=O)[C@H](CO)NC(=O)[C@@H]1CCCN1C(=O)[C@@H](N)CS)C(=O)N[C@@H](Cc1ccccc1)C(=O)N[C@@H](CC(C)C)C(=O)N[C@@H](CS)C(=O)N[C@@H](CC(=O)O)C(=O)NCC(=O)N[C@@H](CCC(=O)O)C(=O)N[C@@H](CC(N)=O)C(=O)N[C@@H](CC(=O)O)C(=O)N[C@@H](CS)C(=O)N[C@@H](CCC(=O)O)C(=O)N[C@@H](CC(=O)O)C(=O)NCC(=O)N[C@@H](CO)C(=O)N[C@@H](CC(=O)O)C(=O)N[C@@H](CCC(=O)O)C(=O)N[C@H](C(=O)N[C@@H](CC(=O)O)C(=O)N[C@@H](CS)C(=O)N1CCC[C@H]1C(=O)N[C@@H](CO)C(=O)N[C@@H](CCCNC(=N)N)C(=O)N[C@H](C(=O)O)[C@@H](C)O)C(C)C (H-CPSNEFMCADKMCFPLIFLCDGENDCEDGSDEVDCPSRT-OH) | 40 to 80 nM | 40 to 80 nM
CSCC[C@H](NC(=O)[C@@H]1CCCN1C(=O)[C@H](Cc1ccc(O)cc1)NC(=O)[C@H](CS)NC(=O)[C@H](Cc1cnc[nH]1)NC(=O)[C@H](CC(N)=O)NC(=O)[C@H](CCCNC(=N)N)NC(=O)[C@H](CC(N)=O)NC(=O)[C@H](CCCNC(=N)N)NC(=O)[C@H](CS)NC(=O)[C@H](CCCNC(=N)N)NC(=O)[C@H](Cc1ccccc1)NC(=O)[C@H](Cc1ccc(O)cc1)NC(=O)[C@H](CO)NC(=O)[C@H](C)NC(=O)[C@@H]1CCCN1C(=O)[C@@H](N)CS)C(=O)N[C@@H](CCC(=O)O)C(=O)N[C@@H](Cc1c[nH]c2ccccc12)C(=O)N[C@@H](CCCNC(=N)N)C(=O)N[C@@H](CS)C(=O)N[C@@H](CC(=O)O)C(=O)NCC(=O)N[C@@H](Cc1ccccc1)C(=O)N1CCC[C@H]1C(=O)N[C@@H](CC(=O)O)C(=O)N[C@@H](CS)C(=O)N[C@@H](CCC(=O)O)C(=O)N[C@@H](CC(=O)O)C(=O)N[C@@H](C)C(=O)N[C@@H](CO)C(=O)N[C@@H](CC(=O)O)C(=O)N[C@@H](CCC(=O)O)C(=O)N[C@@H](CCCCN)C(=O)NCC(=O)N[C@@H](CS)C(=O)N1CCC[C@H]1C(=O)N[C@@H](Cc1ccc(O)cc1)C(=O)N[C@@H](CCCNC(=N)N)C(=O)N[C@H](C(=O)O)[C@@H](C)O (H-CPASYFRCRNRNHCYPMEWRCDGFPDCEDASDEKGCPYRT-OH) | ≤ 1 nM | ≤ 1 nM
CSCC[C@H](NC(=O)[C@@H]1CCCN1C(=O)[C@H](Cc1ccc(O)cc1)NC(=O)[C@H](CS)NC(=O)[C@H](Cc1cnc[nH]1)NC(=O)[C@H](CC(N)=O)NC(=O)[C@H](Cc1cnc[nH]1)NC(=O)[C@H](Cc1ccc(O)cc1)NC(=O)[C@H](CCCNC(=N)N)NC(=O)[C@H](CS)NC(=O)[C@H](CCC(N)=O)NC(=O)[C@H](Cc1ccccc1)NC(=O)[C@H](Cc1ccc(O)cc1)NC(=O)[C@H](CO)NC(=O)[C@@H](NC(=O)[C@@H]1CCCN1C(=O)[C@@H](N)CS)C(C)C)C(=O)N[C@@H](CCC(=O)O)C(=O)N[C@@H](Cc1c[nH]c2ccccc12)C(=O)N[C@@H](CCCNC(=N)N)C(=O)N[C@@H](CS)C(=O)N[C@@H](CC(=O)O)C(=O)NCC(=O)N[C@@H](Cc1ccccc1)C(=O)N1CCC[C@H]1C(=O)N[C@@H](CC(=O)O)C(=O)N[C@@H](CS)C(=O)N[C@@H](CCC(=O)O)C(=O)N[C@@H](CC(=O)O)C(=O)N[C@@H](C)C(=O)N[C@@H](CO)C(=O)N[C@@H](CC(=O)O)C(=O)N[C@@H](CCC(=O)O)C(=O)N[C@@H](CCC(=O)O)C(=O)NCC(=O)N[C@@H](CS)C(=O)N1CCC[C@H]1C(=O)N[C@@H](Cc1ccc(O)cc1)C(=O)N[C@@H](CCCNC(=N)N)C(=O)N[C@H](C(=O)O)[C@@H](C)O (H-CPVSYFQCRYHNHCYPMEWRCDGFPDCEDASDEEGCPYRT-OH) | ≤ 1 nM | ≤ 1 nM
CSCC[C@H](NC(=O)[C@@H]1CCCN1C(=O)[C@H](Cc1ccc(O)cc1)NC(=O)[C@H](CS)NC(=O)[C@H](Cc1cnc[nH]1)NC(=O)[C@H](CCCCN)NC(=O)[C@H](CC(N)=O)NC(=O)[C@H](Cc1cnc[nH]1)NC(=O)[C@H](CCCNC(=N)N)NC(=O)[C@H](CS)NC(=O)[C@H](CCC(N)=O)NC(=O)[C@H](Cc1ccccc1)NC(=O)[C@H](Cc1ccc(O)cc1)NC(=O)[C@H](CO)NC(=O)[C@H](C)NC(=O)[C@@H]1CCCN1C(=O)[C@@H](N)CS)C(=O)N[C@@H](CCC(=O)O)C(=O)N[C@@H](Cc1c[nH]c2ccccc12)C(=O)N[C@@H](CCCNC(=N)N)C(=O)N[C@@H](CS)C(=O)N[C@@H](CC(=O)O)C(=O)NCC(=O)N[C@@H](Cc1ccccc1)C(=O)N1CCC[C@H]1C(=O)N[C@@H](CC(=O)O)C(=O)N[C@@H](CS)C(=O)N[C@@H](CCC(=O)O)C(=O)N[C@@H](CC(=O)O)C(=O)NCC(=O)N[C@@H](CO)C(=O)N[C@@H](CC(=O)O)C(=O)N[C@@H](CCC(=O)O)C(=O)N[C@@H](CC(C)C)C(=O)N[C@@H](CO)C(=O)N[C@@H](CS)C(=O)N1CCC[C@H]1C(=O)N[C@@H](Cc1ccc(O)cc1)C(=O)N[C@@H](CCCNC(=N)N)C(=O)N[C@H](C(=O)O)[C@@H](C)O (H-CPASYFQCRHNKHCYPMEWRCDGFPDCEDGSDELSCPYRT-OH) | ≤ 1 nM | ≤ 1 nM
CC[C@H](C)[C@H](NC(=O)[C@H](CCC(=O)O)NC(=O)[C@H](CC(=O)O)NC(=O)[C@H](CO)NC(=O)CNC(=O)[C@H](CC(=O)O)NC(=O)[C@@H](NC(=O)[C@H](CS)NC(=O)[C@H](CC(=O)O)NC(=O)[C@H](Cc1cnc[nH]1)NC(=O)[C@H](Cc1ccccc1)NC(=O)CNC(=O)[C@H](CC(=O)O)NC(=O)[C@H](CS)NC(=O)[C@H](CCCNC(=N)N)NC(=O)[C@H](Cc1c[nH]c2ccccc12)NC(=O)[C@H](CCC(=O)O)NC(=O)[C@H](CCSC)NC(=O)[C@@H]1CCCN1C(=O)[C@H](Cc1ccc(O)cc1)NC(=O)[C@H](CS)NC(=O)[C@H](Cc1cnc[nH]1)NC(=O)[C@H](CC(N)=O)NC(=O)[C@H](Cc1cnc[nH]1)NC(=O)[C@H](Cc1cnc[nH]1)NC(=O)[C@H](CCCNC(=N)N)NC(=O)[C@H](CS)NC(=O)[C@H](CCC(N)=O)NC(=O)[C@H](Cc1ccccc1)NC(=O)[C@H](Cc1ccc(O)cc1)NC(=O)[C@H](CO)NC(=O)[C@H](C)NC(=O)[C@@H]1CCCN1C(=O)[C@@H](N)CS)C(C)C)C(=O)NCC(=O)N[C@@H](CS)C(=O)N1CCC[C@H]1C(=O)N[C@@H](Cc1ccc(O)cc1)C(=O)N[C@@H](CCCNC(=N)N)C(=O)N[C@H](C(=O)O)[C@@H](C)O (H-CPASYFQCRHHNHCYPMEWRCDGFHDCVDGSDEIGCPYRT-OH) | ≤ 1 nM | ≤ 1 nM

Continued, values first:

IC50 [1] | IC50 [2] | SMILES
≤ 1 nM | ≤ 1 nM | CSCC[C@H](NC(=O)[C@@H]1CCCN1C(=O)[C@H](Cc1ccc(O)cc1)NC(=O)[C@H](CS)NC(=O)[C@H](Cc1cnc[nH]1)NC(=O)[C@H](CC(N)=O)NC(=O)[C@H](Cc1ccc(O)cc1)NC(=O)[C@H](CC(N)=O)NC(=O)[C@H](CCCNC(=N)N)NC(=O)[C@H](CS)NC(=O)[C@H](CCC(N)=O)NC(=O)[C@H](Cc1ccccc1)NC(=O)[C@H](Cc1ccc(O)cc1)NC(=O)[C@H](CO)NC(=O)[C@H](C)NC(=O)[C@@H]1CCCN1C(=O)[C@@H](N)CS)C(=O)N[C@@H](CCC(=O)O)C(=O)N[C@@H](Cc1c[nH]c2ccccc12)C(=O)N[C@@H](CCCNC(=N)N)C(=O)N[C@@H](CS)C(=O)N[C@@H](CC(=O)O)C(=O)NCC(=O)N[C@@H](Cc1ccccc1)C(=O)N[C@@H](CCC(=O)O)C(=O)N[C@@H](CC(=O)O)C(=O)N[C@@H](CS)C(=O)N[C@@H](CC(C)C)C(=O)N[C@@H](CC(=O)O)C(=O)NCC(=O)N[C@@H](CO)C(=O)N[C@@H](CC(=O)O)C(=O)N[C@@H](CCC(=O)O)C(=O)N[C@H](C(=O)N[C@@H](CC(=O)O)C(=O)N[C@@H](CS)C(=O)N1CCC[C@H]1C(=O)N[C@@H](Cc1ccc(O)cc1)C(=O)N[C@@H](CCCNC(=N)N)C(=O)N[C@H](C(=O)O)[C@@H](C)O)[C@@H](C)O (H-CPASYFQCRNYNHCYPMEWRCDGFEDCLDGSDETDCPYRT-OH)
≤ 1 nM | ≤ 1 nM | CSCC[C@H](NC(=O)[C@@H]1CCCN1C(=O)[C@H](Cc1ccc(O)cc1)NC(=O)[C@H](CS)NC(=O)[C@H](Cc1cnc[nH]1)NC(=O)[C@H](CC(N)=O)NC(=O)[C@H](CC(C)C)NC(=O)[C@H](Cc1cnc[nH]1)NC(=O)[C@H](CCCNC(=N)N)NC(=O)[C@H](CS)NC(=O)[C@H](CCCNC(=N)N)NC(=O)[C@H](Cc1ccccc1)NC(=O)[C@H](Cc1ccc(O)cc1)NC(=O)[C@H](CO)NC(=O)[C@@H](NC(=O)[C@@H]1CCCN1C(=O)[C@@H](N)CS)C(C)C)C(=O)N[C@@H](CCC(=O)O)C(=O)N[C@@H](Cc1c[nH]c2ccccc12)C(=O)N[C@@H](CCCNC(=N)N)C(=O)N[C@@H](CS)C(=O)N[C@@H](CC(=O)O)C(=O)NCC(=O)N[C@@H](Cc1ccccc1)C(=O)N[C@@H](CC(C)C)C(=O)N[C@@H](CC(=O)O)C(=O)N[C@@H](CS)C(=O)N[C@H](C(=O)N[C@@H](CC(=O)O)C(=O)NCC(=O)N[C@@H](CO)C(=O)N[C@@H](CC(=O)O)C(=O)N[C@@H](CCC(=O)O)C(=O)N[C@@H](CCC(=O)O)C(=O)NCC(=O)N[C@@H](CS)C(=O)N1CCC[C@H]1C(=O)N[C@@H](Cc1ccc(O)cc1)C(=O)N[C@@H](CCCNC(=N)N)C(=O)N[C@H](C(=O)O)[C@@H](C)O)C(C)C (H-CPVSYFRCRHLNHCYPMEWRCDGFLDCVDGSDEEGCPYRT-OH)
